Source: ChEMBL document CHEMBL3046894, “Synthesis and Herbicidal Activity of Pyrimidinyl Salicylic and Thiosalicylic Acids” (J Pestic Sci, 1996)
Calls of active or inactive are those of the source. No cut-off for these calls is given here.

How the values were obtained:
[1] = system: Cyperus iria; assay: Pre-emergence herbicidal activity against Cyperus iria assessed as growth inhibition at 25 g a.i/10 a; type: functional, organism-based
[2] = system: Gossypium hirsutum; assay: Post-emergence phytotoxicity against Gossypium hirsutum (cotton) assessed as mortality at 1.6 g a.i/10 a applied 11 days after germination as foliar spray; type: organism-based; settings: in vivo, other, 264 h
[3] = system: Zea mays; assay: (§1) Post-emergence phytotoxicity against Zea mays (maize) assessed as mortality at 1.6 g a.i/10 a applied 11 days after germination as foliar spray; type: organism-based; settings: in vivo, other, 264 h
[4] = system: Digitaria sanguinalis; assay: Pre-emergence herbicidal activity against Digitaria sanguinalis (hairy crabgrass) assessed as growth inhibition at 25 g a.i/10 a; type: functional, organism-based
[5] = system: Echinochloa crus-galli; assay: Pre-emergence herbicidal activity against Echinochloa crus-galli (barnyard grass) assessed as growth inhibition at 25 g a.i/10 a; type: functional, organism-based
[6] = system: Glycine max; assay: (§2) Post-emergence phytotoxicity against Glycine max (soybean) assessed as mortality at 1.6 g a.i/10 a applied 11 days after germination as foliar spray; type: organism-based; settings: in vivo, other, 264 h
[7] = system: Amaranthus retroflexus; assay: Pre-emergence herbicidal activity against Amaranthus retroflexus assessed as growth inhibition at 25 g a.i/10 a; type: functional, organism-based
[8] = system: Abutilon theophrasti; assay: Post-emergence herbicidal activity against Abutilon theophrasti (velvetleaf) assessed as mortality at 1.6 g a.i/10 a applied 11 days after germination as foliar spray; type: functional; settings: 264 h
[9] = system: Zea mays; assay: Post-emergence phytotoxicity against Zea mays (maize) assessed as mortality at 6.3 g a.i/10 a applied 11 days after germination as foliar spray; type: organism-based; settings: in vivo, other, 264 h
[10] = system: Chenopodium album; assay: Pre-emergence herbicidal activity against Chenopodium album assessed as growth inhibition at 25 g a.i/10 a; type: functional, organism-based
[11] = system: Persicaria nodosa; assay: Pre-emergence herbicidal activity against Persicaria nodosa assessed as growth inhibition at 25 g a.i/10 a; type: functional, organism-based
[12] = system: Persicaria nodosa; assay: Post-emergence herbicidal activity against Persicaria nodosa assessed as growth inhibition at 25 g a.i/10 a applied 11 days after germination as foliar spray; type: functional, organism-based
[13] = system: Xanthium strumarium; assay: Post-emergence herbicidal activity against Xanthium strumarium (cocklebur) assessed as mortality at 1.6 g a.i/10 a applied 11 days after germination as foliar spray; type: functional; settings: 264 h
[14] = system: Cyperus iria; assay: Post-emergence herbicidal activity against Cyperus iria assessed as growth inhibition at 25 g a.i/10 a applied 11 days after germination as foliar spray; type: functional, organism-based
[15] = system: Gossypium hirsutum; assay: Post-emergence phytotoxicity against Gossypium hirsutum (cotton) assessed as mortality at 6.3 g a.i/10 a applied 11 days after germination as foliar spray; type: organism-based; settings: in vivo, other, 264 h
[16] = system: Chenopodium album; assay: Post-emergence herbicidal activity against Chenopodium album assessed as growth inhibition at 25 g a.i/10 a applied 11 days after germination as foliar spray; type: functional, organism-based
[17] = system: Echinochloa crus-galli; assay: Post-emergence herbicidal activity against Echinochloa crus-galli (barnyard grass) assessed as growth inhibition at 25 g a.i/10 a applied 11 days after germination as foliar spray; type: functional, organism-based
[18] = system: Amaranthus retroflexus; assay: Post-emergence herbicidal activity against Amaranthus retroflexus assessed as growth inhibition at 25 g a.i/10 a applied 11 days after germination as foliar spray; type: functional, organism-based
[19] = system: Digitaria sanguinalis; assay: Post-emergence herbicidal activity against Digitaria sanguinalis (hairy crabgrass) assessed as growth inhibition at 25 g a.i/10 a applied 11 days after germination as foliar spray; type: functional, organism-based
[20] = system: Glycine max; assay: Pre-emergence phytotoxicity against Glycine max (soybean) assessed as mortality at 6.3 g a.i/10 a; type: organism-based; settings: in vivo, other
[21] = as §1; type: organism-based; settings: in vivo, 1.6 g a.i/10 a
[22] = as §2; type: organism-based; settings: in vivo, 1.6 g a.i/10 a
[23] = system: Gossypium hirsutum; assay: Pre-emergence phytotoxicity against Gossypium hirsutum (cotton) assessed as mortality at 6.3 g a.i/10 a; type: organism-based; settings: in vivo, other
[24] = system: Ipomoea lacunosa; assay: Pre-emergence herbicidal activity against Ipomoea lacunosa assessed as mortality at 1.6 g a.i/10 a; type: functional; settings: Ipomoea lacunosa, pre-emergence
[25] = system: Xanthium strumarium; assay: Pre-emergence herbicidal activity against Xanthium strumarium (cocklebur) assessed as mortality at 1.6 g a.i/10 a; type: functional; settings: Xanthium strumarium, pre-emergence
[26] = system: Ipomoea lacunosa; assay: Pre-emergence herbicidal activity against Ipomoea lacunosa assessed as mortality at 6.3 g a.i/10 a; type: functional; settings: Ipomoea lacunosa, pre-emergence
[27] = system: Glycine max; assay: Pre-emergence phytotoxicity against Glycine max (soybean) assessed as mortality at 1.6 g a.i/10 a; type: organism-based; settings: in vivo, other
[28] = system: Zea mays; assay: Pre-emergence phytotoxicity against Zea mays (maize) assessed as mortality at 1.6 g a.i/10 a; type: organism-based; settings: in vivo, other
[29] = system: Abutilon theophrasti; assay: Post-emergence herbicidal activity against Abutilon theophrasti (velvetleaf) assessed as mortality at 6.3 g a.i/10 a applied 11 days after germination as foliar spray; type: functional; settings: 264 h
[30] = system: Echinochloa crus-galli; assay: Pre-emergence herbicidal activity against Echinochloa crus-galli (barnyard grass) assessed as mortality at 6.3 g a.i/10 a; type: functional; settings: Echinochloa crus-galli, pre-emergence
[31] = system: Ipomoea lacunosa; assay: Post-emergence herbicidal activity against Ipomoea lacunosa assessed as mortality at 1.6 g a.i/10 a applied 11 days after germination as foliar spray; type: functional; settings: 264 h
[32] = system: Echinochloa crus-galli; assay: Post-emergence herbicidal activity against Echinochloa crus-galli (barnyard grass) assessed as mortality at 6.3 g a.i/10 a applied 11 days after germination as foliar spray; type: functional; settings: 264 h

| Structure (SMILES) | growth inhibition (GI) [1] | Activity [2] | growth inhibition (GI) [4] | growth inhibition (GI) [5] | growth inhibition (GI) [7] | mortality at 16 g/ha [8] | growth inhibition (GI) [10] | growth inhibition (GI) [11] | growth inhibition (GI) [12] | mortality at 16 g/ha [13] | growth inhibition (GI) [14] | Activity [15] | growth inhibition (GI) [16] | growth inhibition (GI) [17] | growth inhibition (GI) [18] | growth inhibition (GI) [19] | Activity [20] | mortality at 264 h [21] | mortality at 264 h [22] | Activity [23] | further results |
| --- | --- | --- | --- | --- | --- | --- | --- | --- | --- | --- | --- | --- | --- | --- | --- | --- | --- | --- | --- | --- | --- |
| COc1cc(OC)nc(Oc2cccc(N)c2C(=O)O)n1 | Active | Non-toxic | inactive | inactive | Active | < 5% | Active | inactive | Active | < 5% | Active | Toxic | Active | Active | Active | Active | – | – | – | – | Activity [3]: Toxic; Activity [6]: Toxic; Activity [9]: Toxic |
| CCOc1cccc(Oc2nc(OC)cc(OC)n2)c1C(=O)O | Active | Non-toxic | Active | Active | Active | – | Active | Active | Active | – | Active | Toxic | Active | Active | Active | Active | Toxic | > 90% | > 90% | Non-toxic | mortality at 16 g/ha [24]: < 5%; mortality at 16 g/ha [25]: < 5%; mortality at 63 g/ha [26]: < 5%; Activity [27]: Non-toxic; Activity [28]: Toxic; mortality at 63 g/ha [29]: > 90% |
| CCc1cccc(Oc2nc(OC)cc(OC)n2)c1C(=O)O | Active | Toxic | Active | Active | Active | > 90% | Active | Active | Active | < 5% | Active | Toxic | Active | Active | Active | Active | Toxic | > 90% | > 90% | Non-toxic | mortality at 63 g/ha [30]: > 90%; mortality at 16 g/ha [31]: < 5%; mortality at 16 g/ha [24]: < 5%; mortality at 16 g/ha [25]: < 5%; Activity [27]: Non-toxic; mortality at 63 g/ha [32]: > 90%; Activity [28]: Toxic; mortality at 63 g/ha [29]: > 90% |
